Laboratory results as given in paper PMC9516332 (Frontiers in Oncology, 2022).
Like-named read-outs stand apart in the source and are kept apart here.

Legend:
Assay in all cases: Kinase panel profiling at 1 µmol/L (MSA or IMAP), percentage inhibition
Format in all cases: biochemical
[1] = molecular target: panel of 255 wild-type kinases (Homo sapiens, UniProt P19784); details: read-out: %-inhibition at 1 µmol/L, CK2α2/β
[2] = molecular target: panel of 255 wild-type kinases (Homo sapiens, UniProt P54756); details: read-out: %-inhibition at 1 µmol/L, EPHA5
[3] = molecular target: panel of 255 wild-type kinases (Homo sapiens, UniProt Q9P289); details: read-out: %-inhibition, MST4
[4] = molecular target: T1, panel of 255 wild-type kinases (Homo sapiens, UniProt Q8TDC3); details: read-out: %-inhibition BRSK1
T1 sequence (Q8TDC3 1-778): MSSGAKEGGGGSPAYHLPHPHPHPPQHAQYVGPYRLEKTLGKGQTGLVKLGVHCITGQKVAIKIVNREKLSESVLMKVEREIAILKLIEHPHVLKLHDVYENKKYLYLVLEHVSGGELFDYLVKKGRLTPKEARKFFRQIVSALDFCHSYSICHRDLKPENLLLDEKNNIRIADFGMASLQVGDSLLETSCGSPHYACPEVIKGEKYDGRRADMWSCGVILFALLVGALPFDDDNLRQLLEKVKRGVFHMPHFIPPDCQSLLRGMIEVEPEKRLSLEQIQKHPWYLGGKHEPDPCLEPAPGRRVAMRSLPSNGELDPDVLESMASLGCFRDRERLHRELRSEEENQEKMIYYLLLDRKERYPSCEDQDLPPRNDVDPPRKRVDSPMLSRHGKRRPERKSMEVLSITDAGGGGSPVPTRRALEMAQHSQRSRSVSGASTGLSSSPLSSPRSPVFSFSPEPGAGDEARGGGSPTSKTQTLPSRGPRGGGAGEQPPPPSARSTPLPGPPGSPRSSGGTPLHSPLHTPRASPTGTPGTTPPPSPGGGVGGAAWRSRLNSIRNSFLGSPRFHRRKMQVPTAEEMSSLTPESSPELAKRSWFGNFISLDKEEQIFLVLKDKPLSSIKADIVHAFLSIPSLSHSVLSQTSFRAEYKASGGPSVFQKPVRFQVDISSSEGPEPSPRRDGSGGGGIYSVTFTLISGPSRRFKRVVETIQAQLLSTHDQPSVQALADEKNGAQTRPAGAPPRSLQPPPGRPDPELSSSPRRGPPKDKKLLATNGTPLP

[5] = molecular target: panel of 255 wild-type kinases (Homo sapiens, UniProt Q05655); details: read-out: %-inhibition at 1 µmol/L, PKCδ
[6] = molecular target: panel of 255 wild-type kinases (Homo sapiens, UniProt P17612); details: read-out: %-inhibition at 1 µmol/L, PKACα
[7] = molecular target: panel of 255 wild-type kinases (Homo sapiens, UniProt Q15119); details: read-out: %-inhibition at 1 µmol/L, PDHK2
[8] = molecular target: panel of 255 wild-type kinases (Homo sapiens, UniProt Q06187); details: read-out: %-inhibition BTK
[9] = molecular target: panel of 255 wild-type kinases (Homo sapiens, UniProt O96017); details: read-out: %-inhibition CHK2
[10] = molecular target: panel of 255 wild-type kinases (Homo sapiens, UniProt Q7KZI7); details: read-out: %-inhibition, MARK2
[11] = molecular target: panel of 255 wild-type kinases (Homo sapiens, UniProt P04629); details: read-out: %-inhibition at 1 µmol/L, TRKA
[12] = molecular target: panel of 255 wild-type kinases (Homo sapiens, UniProt P17948); details: read-out: %-inhibition at 1 µmol/L, FLT1
[13] = molecular target: panel of 255 wild-type kinases (Homo sapiens, UniProt Q00526); details: read-out: %-inhibition CDK3/CycE1
[14] = molecular target: panel of 255 wild-type kinases (Homo sapiens, UniProt Q04759); details: read-out: %-inhibition at 1 µmol/L, PKCθ
[15] = molecular target: panel of 255 wild-type kinases (Homo sapiens, UniProt O60674); details: read-out: %-inhibition at 1 µmol/L, JAK2
[16] = molecular target: panel of 255 wild-type kinases (Homo sapiens, UniProt Q8TDX7); details: read-out: %-inhibition, NEK7
[17] = kinase CK2α2/β, 1 µmol/L single concentration
[18] = kinase EPHA5, 1 µmol/L single concentration
[19] = MST4, 1 µmol/L single concentration
[20] = BRSK1 kinase assay, 1 µmol/L single concentration
[21] = kinase PKCδ, 1 µmol/L single concentration
[22] = kinase PKACα, 1 µmol/L single concentration
[23] = kinase PDHK2, 1 µmol/L single concentration
[24] = BTK kinase assay, 1 µmol/L single concentration
[25] = CHK2 kinase assay, 1 µmol/L single concentration
[26] = MARK2, 1 µmol/L single concentration
[27] = kinase TRKA, 1 µmol/L single concentration
[28] = kinase FLT1, 1 µmol/L single concentration
[29] = CDK3/CycE1 kinase assay, 1 µmol/L single concentration
[30] = kinase PKCθ, 1 µmol/L single concentration
[31] = kinase JAK2, 1 µmol/L single concentration
[32] = NEK7, 1 µmol/L single concentration

Compound | inhibition at 1 µM [1, 17] | inhibition at 1 µM [2, 18] | inhibition at 1 µM [3, 19] | inhibition at 1 µM [4, 20] | inhibition at 1 µM [5, 21] | inhibition at 1 µM [6, 22] | inhibition at 1 µM [7, 23] | inhibition at 1 µM [8, 24] | inhibition at 1 µM [9, 25] | inhibition at 1 µM [10, 26] | inhibition at 1 µM [11, 27] | inhibition at 1 µM [12, 28] | inhibition at 1 µM [13, 29] | inhibition at 1 µM [14, 30] | inhibition at 1 µM [15, 31] | inhibition at 1 µM [16, 32] | other results
Cn1cnc2c(F)c(Nc3ccc(Br)cc3Cl)c(C(=O)NOCCO)cc21 [selumetinib] | -2% | -12% | -0.349% | -1.75% | -4.35% | -28% | 2.47% | 52% | 4% | -14% | 18% | 4.22% | -9% | -0.321% | -0.0152% | -0.844% | 
COc1ccc(CN2C3CC2CN(c2ccc(-c4cc(OCC(C)(C)O)cn5ncc(C#N)c45)cn2)C3)cn1 [selpercatinib] | 0.638% | 69% | 2.38% | 36% | -2% | -5% | -0.608% | 17% | 80% | 26% | 33% | 98% | 3.49% | -2.29% | 27% | 1% | 
O=C(Nc1cnn2ccc(N3CCC[C@@H]3c3cc(F)ccc3F)nc12)N1CC[C@H](O)C1 [larotrectinib] | -3% | -0.0881% | 1.67% | -0.915% | -5% | -20% | 5% | -3.71% | 3.46% | -19% | 99% | -0.638% | 1.79% | -2.77% | 46% | 0.263% | 
CCN1C(=O)N(c2c(F)c(OC)cc(OC)c2F)Cc2cnc3[nH]c(CN4CCOCC4)cc3c21 [pemigatinib] | -5% | -2% | 56% | 0.395% | 0.471% | -9% | 3.53% | -5.29% | 3% | 50% | 14% | 95% | 11% | -2.16% | -2.85% | 3% | 
CNC(=O)c1ccc(-c2cnc3ncc(Cc4ccc5ncccc5c4)n3n2)cc1F [capmatinib] |  |  |  |  |  |  |  |  |  |  |  |  |  |  |  |  | inhibition at 1 µM [1]: -0.77%; inhibition at 1 µM [2]: -13%; inhibition at 1 µM [3]: -2.24%; inhibition at 1 µM [4]: 0.113%; inhibition at 1 µM [5]: -10%; inhibition at 1 µM [6]: -28%; inhibition at 1 µM [7]: -2.62%; inhibition at 1 µM [8]: 8%; inhibition at 1 µM [9]: -1.52%; inhibition at 1 µM [10]: -8%; inhibition at 1 µM [11]: 39%; inhibition at 1 µM [12]: 5.7%; inhibition at 1 µM [13]: -14%; inhibition at 1 µM [14]: -5.31%; inhibition at 1 µM [15]: 1.58%; inhibition at 1 µM [16]: -9%
FC(F)(F)c1ccc(CNc2ccc(Cc3c[nH]c4ncc(Cl)cc34)cn2)cn1 [pexidartinib] | 0.601% | 4% | 7% | 9% | 6.48% | -7% | 4% | -0.863% | 11% | 5.3% | 79% | 82% | -1.23% | 3.27% | 35% | -2.52% | 
C=CC(=O)N1CCC([C@@H]2CCNc3c(C(N)=O)c(-c4ccc(Oc5ccccc5)cc4)nn32)CC1 [zanubrutinib] | -4% | 0.0392% | -1% | -1.87% | -6% | -13% | 5% |  | 4% | -21% | 9% | 2.22% | 2.65% | -3% | -0.375% | 2% | 
C[C@H]1Oc2cc(cnc2N)-c2c(nn(C)c2C#N)CN(C)C(=O)c2ccc(F)cc21 [lorlatinib] | -2.41% | 38% | -8% | 29% | 5% | -8% | 1.88% | 1.48% | 41% | 11% |  | 3.17% | 3% | 3% | 69% | 1.44% | 
CCN1CCN(c2ccc(Nc3cc(N(C)C(=O)Nc4c(Cl)c(OC)cc(OC)c4Cl)ncn3)cc2)CC1 [infigratinib] | -2.17% | -8% | -10% | 1.2% | -3% | -28% | -3.38% |  | -0.482% | -9% | 27% | 91% | -10% | -3% | 2.11% | -3.65% | 
CN1CCN(c2ccc(C(=O)Nc3n[nH]c4ccc(Cc5cc(F)cc(F)c5)cc34)c(NC3CCOCC3)c2)CC1 [entrectinib] | 2% | 53% | 6% | 8% | 8% | -7% | 4.24% | 97% | 31% | 9% |  | 76% | 5.63% | 10% | 100% | -1.81% | 
